Results on one compound are retold here after patent US10576049B1, “Composition for improving function of aortic endothelial cell and use thereof” (XI'AN JIAOTONG UNIVERSITY, priority 2018, dated 2020).

What all share (format): cell-based
In assay [1] the test system is interleukin-6 (IL-6) mRNA in human aortic endothelial cells (HAEC). Put plainly: IL-6 mRNA level detection (RT-PCR) in palmitic acid-induced inflammation of human aortic endothelial cells. To be noted: 500 μM palmitic acid 24 h, versus control group, HAEC (FIG. 1).
Method: (§2) In each of the three experiment groups, the cells were respectively cultured at an atmosphere of 95% air and 5% CO2 at 37° C. in wells of a 12-well cell culture plate for the following mRNA level detection, and in wells of a 6-well cell culture plate for the following protein detection. After the cell density of the three experiment groups were all cultured to 40% to 50%, the composition was added to the cells of group III. The composition was comprised of the acetic acid, lactic acid, polyoxyethylene castor oil (EL-12), and disodium alkyl polyoxyethylene sulfosuccinate (A-102) in the mass ratio of 1:2.2:1.8:1.5. Different concentrations of the composition were obtained by diluting the composition by adding a solvent having a volume of 20, 100, or 1000 times of the composition. […]
(§3) The detecting of mRNA levels corresponding to interleukin-6 and matrix metalloproteinase-1 was carried out by using reverse transcription RNA and real-time quantitative polymerase chain reaction (PCR), and the specific method is as follows:
(§4) The medium for cell culture in the wells was removed. […] The concentration of the solution was measured by an ultraviolet spectrophotometer. […]
In assay [2] the test system is mitochondrial complex III in human aortic endothelial cells. Put plainly: Western blot of mitochondrial complex III expression in palmitic acid-treated human aortic endothelial cells. Conditions: 500 μM palmitic acid 24 h alone, versus control, HAEC, Western blot (FIG. 2A, 2B). Here is the method:
(§1) Human aortic endothelial cells (HAEC) were purchased from Shanghai Baili Biotechnology Co., Ltd. Palmitic acid was purchased from SIGMA Company. The cells were cultured in a constant-temperature, humidified, sterile incubator. The experiments were performed in three experiment groups: I. control; II. 500 μM palmitic acid treatment; and III. composition protecting. In each of the three experiment groups, the cells were respectively cultured at an atmosphere of 95% air and 5% CO2 at 37° C. in wells of a 12-well cell culture plate for the following mRNA level detection, and in wells of a 6-well cell culture plate for the following protein detection. After the cell density of the three experiment groups were all cultured to 40% to 50%, the composition was added to the cells of group III. […] The supernatants were collected, and the proteins therein were quantified by bicinchoninic acid (BCA) assay, and normalized. […] Target proteins were detected by chemiluminescence. Referring to FIG. 1 to FIG. 3, the data obtained in the above-described experiments, for the amount of the mRNA and the proteins, were expressed in the diagrams in form of mean±SEM (SEM is standard error of mean), and the data were analyzed by using One-way ANOVA analysis method with statistical significance p values of * meaning p<0.05, ** meaning p<0.01, *** meaning p<0.001. […]

Assay [3] concerns matrix metalloproteinase-1 (MMP-1) mRNA in human aortic endothelial cells (HAEC). In words: MMP-1 mRNA level detection (RT-PCR) in palmitic acid-induced inflammation of human aortic endothelial cells. To be noted: 500 μM palmitic acid 24 h, versus control group, HAEC (FIG. 1).
Method: as §2, §3, §4
The test system of assay [4] is mitochondrial complex I in human aortic endothelial cells. Put plainly: Western blot of mitochondrial complex I expression in palmitic acid-treated human aortic endothelial cells. Conditions: 500 μM palmitic acid 24 h alone, versus control, HAEC, Western blot (FIG. 2A, 2B). Here is the method:
as §1
In general terms: In western blotting, separated proteins are transferred to a membrane and probed.

For assay [5], the system named is FoxO1 protein in human aortic endothelial cells. In words: Western blot of FoxO1 protein expression in palmitic acid-treated human aortic endothelial cells. Conditions: 500 μM palmitic acid 24 h alone, versus control, HAEC. Here is the method:
as §1

As for `CCCCCCCCCCCCCCCC(=O)O` [palmitic acid], the “increase of mRNA level corresponding to IL-6” value in assay [1] was “about 12 times”. The “expression of mitochondrial complex III” value in assay [2] is recorded as “reducing”. The “increase of mRNA level corresponding to MMP-1” value in assay [3] is “about 5 times”. Moreover, the “expression of mitochondrial complex I” value in assay [4] is recorded as “reducing”. The “expression of FoxO1” value in assay [5] was “reducing”.
